Paper PMC11530130, “Peripherally restricted PICK1 inhibitor mPD5 ameliorates pain behaviors in murine inflammatory and neuropathic pain models” (JCI Insight, 2024)
Several values for one entry are separate records, joined by “and”; a condition that tells them apart may be missing. Equal values may be shown once. Entries after “also recorded” stand apart in the source; their conditions may differ.

What was measured:
[1] = Plasma exposure after single s.c. injection, LC-MS/MS; assay type: in vivo, mouse; parameters: maximal plasma concentration / plasma concentration, individual mice: unit not given here
Description: Assessment of plasma levels and biodistribution of mPD5.
The mPD5 plasma exposure was determined by (WuXI AppTec (Shanghai, China)) and done following s.c. injection of three male C57BL/6N (vendor: VTLH) mice (7-9 weeks old, fasted) with each concentration of mPD5 (2, 10 and 50 µmol/kg) in sterile PBS. Blood samples were taken 30 min, 1 hour, 2 hours, 5 hours, and 12 hours following injection. For the repeated administration experiment, the initial s.c. injection of 10 µmol/kg was followed by 4 s.c. administrations of 2 µmol/kg with one hour between injections. Following the last injection, blood samples (0.03 mL from saphenous vein or other suitable site) were collected in EDTA- […]
K2 tubes at 5 min, 30 min, 1 hour, 5 hours, 12 hours, 24 hours, and 48 hours and centrifuged (app 4 ℃, 3200 g, 10 min) for collection of plasma. Plasma was transferred to 96 well plates and quick-frozen over dry ice and kept at -60 ℃ until LC-MS/MS analysis. For LC-MS/MS analysis plasma with 0.25% Triton X100 in 50% MeOH/water (6 µL) was quenched with 160 µL of IS1 (internal standard in MeOH (Labetalol & tolbutamide & Verapamil & dexamethasone & glyburide & Celecoxib 100 ng/mL for each)) and the mixture was vortexed for 10 min at 800 rpm and centrifuged for 15 min at 3220 × g at 4 ℃. An aliquot of 65 µL supernatant was transferred to a clean 96-well plate and centrifuged for 5 min at 3220 × g at 4 ℃, then the supernatant was directly injected for LC-MS/MS analysis. Plasma half-lives were determined from three points in the elimination phase. […]

[2] = test system: mice, spared nerve injury (SNI) model; test: Single exposure place preference (sePP), SNI mice; assay type: in vivo, mouse; parameters: time spent in the paired compartment, individual mice: reference not given here
Description: Single exposure place preference.
Initial perception of the drugs was measured by single exposure place preference experiments performed in an elongated three compartment apparatus (67.5 cm x 24 cm) with a biased design of different floor textures and wall patterns and a neutral zone in the middle. We have […]
compartment and that a single exposure of psychostimulants in the grey compartment sufficiently changes the preference towards that compartment (9-11). For further details of the setup, we refer to (10). Experiments lasted three days with exposure sessions on days one and two and a preference test on day three. […]
Mice were left in Med-Associates square behavioral chambers (27 cm x 27 cm) to freely roam around for 60 min, four days in a row. […] On day three, both control and SNI mice were placed directly in the chambers and recorded for 60 min. On day four, control mice were injected s.c. with PBS, and SNI mice were injected with either 10 μmol/kg mPD5 or PBS immediately before being placed in the chambers and recorded for 60 min. The recordings were analyzed using the Avisoft SASLab Pro software (Version 5.02.07, Avisoft Bioacoustics) as described in (12), applying a fast fourier transformation (FFT) (1024 FTT length, 100% frame size, Blackman window, and 87.5% time window overlap). […]

CCCCCCCCCCCCCC(=O)N(CCOCCOCCC(=O)N[C@@H](Cc1c[nH]cn1)C(=O)N[C@@H](Cc1c[nH]c2ccccc12)C(=O)N[C@@H](CC(C)C)C(=O)N[C@@H](CCCCN)C(=O)N[C@H](C(=O)O)C(C)C)CCOCCOCCC(=O)N[C@@H](Cc1c[nH]cn1)C(=O)N[C@@H](Cc1c[nH]c2ccccc12)C(=O)N[C@@H](CC(C)C)C(=O)N[C@@H](CCCCN)C(=O)N[C@H](C(=O)O)C(C)C [mPD5, myristoyl-NPEG4-(HWLKV)2]
half-life ([1]; male, C57BL/6N, mouse, plasma, sc, 2 umol/kg, mice, s.c. 2 μmol/kg): 30 ± 4.2 min
half-life ([1]; male, C57BL/6N, mouse, plasma, sc, 10 umol/kg, mice, s.c. 10 μmol/kg): 35.4 ± 4.2 min
half-life ([1]; male, C57BL/6N, mouse, plasma, sc, 10 umol/kg; mice, s.c. 10 μmol/kg): 36 min
half-life ([1]; male, C57BL/6N, mouse, plasma, sc, 50 umol/kg, mice, s.c. 50 μmol/kg): 50.4 ± 1.8 min
Tmax ([1]; male, C57BL/6N, mouse, plasma, sc, 50 umol/kg; mice, s.c., all doses (2, 10, 50 μmol/kg); read-out: time of maximal plasma concentration): 60 min
maximal plasma concentration ([1]; mice, s.c. 2 μmol/kg, 1 hour): 1.4 ± 0.1
maximal plasma concentration ([1]; mice, s.c. 10 μmol/kg, 1 hour): 6.2 ± 5
maximal plasma concentration ([1]; mice, s.c. 50 μmol/kg, 1 hour): 20.2 ± 0.6
maximal dose and area under the curve vs dose ([1]; mice, s.c. 2, 10, 50 μmol/kg): scaled linearly with dose
distribution volume ([1]; mice, s.c., all concentrations): approximately 30 mL
elimination kinetics ([1]; mice, s.c., all doses): first-order kinetics; also recorded: eliminated with linear kinetics
plasma concentration, individual mice ([1]; s.c. 2µmol/kg; 0.5 h): 1295 and 1523 and 1490
plasma concentration, individual mice ([1]; s.c. 2µmol/kg; 1 h): 1326 and 1469 and 1351
plasma concentration, individual mice ([1]; s.c. 2µmol/kg; 2 h): 439 and 392 and 443
plasma concentration, individual mice ([1]; s.c. 2µmol/kg; 5 h): 8.69 and 2.25 and 8.61
plasma concentration, individual mice ([1]; s.c. 10µmol/kg; 0.5 h): 4235 and 5102 and 3488
plasma concentration, individual mice ([1]; s.c. 10µmol/kg; 1 h): 6616 and 5618 and 6285
plasma concentration, individual mice ([1]; s.c. 10µmol/kg; 2 h): 2485 and 2007 and 1777
plasma concentration, individual mice ([1]; s.c. 10µmol/kg; 5 h): 101 and 46.6 and 33.1
plasma concentration, individual mice ([1]; s.c. 50µmol/kg; 0.5 h): 12546 and 11390 and 17752
plasma concentration, individual mice ([1]; s.c. 50µmol/kg; 1 h): 20045 and 20980 and 19750
plasma concentration, individual mice ([1]; s.c. 50µmol/kg; 2 h): 14800 and 13957 and 8907
plasma concentration, individual mice ([1]; s.c. 50µmol/kg; 5 h): 1391 and 1198 and 438
plasma concentration, individual mice ([1]; s.c. 50µmol/kg; 12 h): 3.21 and 3.81 and 2.66
time spent in the paired compartment, individual mice ([2]; SNI mice conditioned with 30 μmol/kg): 0.9648 and 1.369 and 0.722 and 0.8519 and 0.9815 and 0.6715 and 0.5887 and 0.7233 and 1.085 and 1.235 and 0.7664
time spent in the paired chamber compared to PBS (sePP) ([2]; SNI, male mice, s.c. 30 μmol/kg): did not change the time spent in the paired chamber
